Experimental data from patent publication US6951647B2, “T cell binding ligand peptides and method of inducing a cellular immune response” (Cel-Sci Corporation, priority 2001, dated 2005).
“And” between values parts separate entries of the source, which are not always exact repeats. Equal values may be shown once.

What was measured:
Peptide G [1] = assay: Specificity analysis for the TCBL carrier, ELISA plates coated with Peptide G; format: in vivo, Mice; details: individual animal
Peptide G [2] = assay: as above; format: in vivo, Mice; details: for A 490 1:200 dilution on plates coated with Peptide G: Average
Method: (§1) Mice in groups (5-10 animals per group as designated) are immunized with the LEAPS constructs (25 μg/dose) of SEQ ID NO's:37, 38 and 39, in 0.2 mL emulsified 1:1 with adjuvant (Seppic's ISA-51 or Corixa's microfluidized MPL S/E) on days 0 and 14. Mice are evaluated by Delayed Type of Hypersensitivity (DTH) by inoculation on day 26 with 20 μl of a solution of saline or mH (SEQ ID NO:6) (25 μg in saline) in the left or right ear respectively. The DTH response is determined by measurement of the ear thickness 48 hours later and expressed as increase in ear thickness (mm) of experimental ear compared to that of the control ear. Individual animal sera are collected for measurement of antibody on day 28, 42, 63 and 77. Sera from individual animals and group pools are evaluated for specific anti-mH antibody, for total antibody, IgG1, IgG2a and IgG3 antibody isotype and cross clade titer at selected time points as indicated.
A specificity analysis for the TCBL or KLH carrier for pools of day 42 test bleedings from the G-mH, G′-mH and mH/KLH, using either MPL S/E or ISA51 as adjuvant, was carried out (all sera assayed at a dilution of 1:200) and the results are shown in Table 5. […] This observation is especially significant for vaccines used on a repetitive basis, such as, either a vaccine that requires more frequent intervals between boosters for maintenance of cellular reactivity or as a therapeutic vaccine.

modified HGP-30 = assay: ELISA antibody screening of sera of immunized mice on modified HGP-30; format: in vivo; details: for ELISA test antigen Modified HGP-30: day 42 test bleeding
Method: as §1, with “indicated. […]” for “indicated.”

[3] = system: modified HGP-30 (mH, SEQ ID NO:6); assay: Isotype analysis (ELISA) of anti-mH antibody in sera of immunized mice; format: in vivo; parameters: IgG1 / IgG2a / IgG2b / IgG3: unit not given here; details: for IgG1 / IgG2a / IgG2b / IgG3: ELISA signal, day 42 test bleeding; for Ig1, serial dilution 1:200 / Ig1, serial dilution 1:800 / Ig1, serial dilution 1:3200 / Ig1, serial dilution 1:12800 / Ig1, serial dilution 1:51200 / Ig1, serial dilution 1:204800 / Ig2a, serial dilution 1:200 / Ig2a, serial dilution 1:800 / Ig2a, serial dilution 1:3200 / Ig2a, serial dilution 1:12800 / Ig2a, serial dilution 1:51200 / Ig2a, serial dilution 1:204800 / Ig2b, serial dilution 1:200 / Ig2b, serial dilution 1:800 / Ig2b, serial dilution 1:3200 / Ig2b, serial dilution 1:12800 / Ig2b, serial dilution 1:51200 / Ig2b, serial dilution 1:204800 / Ig3, serial dilution 1:200 / Ig3, serial dilution 1:800 / Ig3, serial dilution 1:3200 / Ig3, serial dilution 1:12800 / Ig3, serial dilution 1:51200 / Ig3, serial dilution 1:204800: day 28 pool
Method: as §1
The results of an isotype analysis of day 42 test bleedings with G′-mH (SEQ ID NO:37), G-mH (SEQ ID NO:38), J-mH (SEQ ID NO:39), F-mH (SEQ ID NO:40) and F-HGP-30 (SEQ ID NO:41), are shown in Table 1.
An isotype analysis for pools of day 28 test bleedings G-mH, G′-mH and m-HGP-30/KLH using either MPL S/E or ISA51 as adjuvant, are shown in Table 3.

B Clade = assay: ELISA cross clade recognition by sera of immunized mice, B Clade; format: in vivo; details: for ELISA test antigen B Clade: day 42 test bleeding
Method: as §1
(§2) The mouse sera for the ELISA was used at a dilution of 1:200. Again, clearly, the construct provides higher signals indicative of higher levels of the antibodies that recognized other clades besides the parental one (Clade B) of mH.
(§3) A cross clade analysis for pools of day 42 test bleedings from the same groups as used in Table 3, were obtained and the results are shown in Table 4.

E Clade [4] = assay: ELISA cross clade recognition by sera of immunized mice, E Clade; format: in vivo; details: day 42 test bleeding, individual mouse
C Clade = assay: ELISA cross clade recognition by sera of immunized mice, C Clade; format: in vivo; details: for ELISA test antigen C Clade: day 42 test bleeding
Method: as §1, §2, §3

E Clade [5] = assay: ELISA cross clade recognition by sera of immunized mice, E Clade; format: in vivo; details: for ELISA test antigen E Clade: day 42 test bleeding, Group Average
Method: as §1, §2, §3

D Clade [6] = assay: ELISA cross clade recognition by sera of immunized mice, D Clade; format: in vivo; details: for ELISA test antigen D Clade: day 42 test bleeding, Group Average
Method: as §1, §2, §3

D Clade [7] = assay: as above; format: in vivo; details: day 42 test bleeding, individual mouse
[8] = day 63 test bleeding, sera 1:200, individual mouse
[9] = group without '(with MPL)' (ISA51)

Substance: NGQ EEK AGV VST GLI GGG ATL YSV HQR IDV KDT KEA LEK IEE EQN KS (DGQEEKAGVVSTGLIGGGEAQNTTYL) [SEQ ID NO: 58, Peptide G linked by GGG spacer to modified HGP-30 (mH)]
- A 490 1:200 dilution on plates coated with Peptide G (Peptide G [1]; day 42, first set of groups (animals 4637-4648, 4674-4678)): 0.195 A 490 and 0.122 A 490 and 0.092 A 490 and 0.088 A 490 and 0.047 A 490
- A 490 1:200 dilution on plates coated with Peptide G (Peptide G [1]; day 42, second set of groups (animals 4662-4673, 4679-4683)): 0.024 A 490 and 0.044 A 490 and 0.062 A 490 and 0.033 A 490 and 0.060 A 490 and 0.151 A 490
- A 490 1:200 dilution on plates coated with Peptide G (Peptide G [2]; day 42, first set of groups): 0.099 A 490
- A 490 1:200 dilution on plates coated with Peptide G (Peptide G [2]; day 42, second set of groups): 0.062 A 490
- Reactivity toward the delivery vehicle TCBL (Peptide G [2]; day 42 sera at 1:200, Table 5, in words): minimal reactivity
- A 490 1:200 dilution on plates coated with modified HGP-30 (modified HGP-30; day 42, first set of groups (animals 4637-4648, 4674-4678), individual animal): 0.257 A 490 and 0.571 A 490 and 0.065 A 490 and 0.392 A 490 and 1.008 A 490 and 0.021 A 490
- A 490 1:200 dilution on plates coated with modified HGP-30 (modified HGP-30; day 42, first set of groups, Average): 0.386 A 490
- A 490 1:200 dilution on plates coated with modified HGP-30 (modified HGP-30; day 42, second set of groups (animals 4662-4673, 4679-4683), individual animal): 0.051 A 490 and 0.052 A 490 and 1.102 A 490 and 0.005 A 490 and 0.000 A 490 (2×)
- A 490 1:200 dilution on plates coated with modified HGP-30 (modified HGP-30; day 42, second set of groups, Average): 0.202 A 490
- ELISA test antigen Modified HGP-30 (modified HGP-30; group (A), Group Average): 0.576
- ELISA test antigen Modified HGP-30 (modified HGP-30; group (A), individual mouse): 0.470 and 1.103 and 0.046 and 0.390 and 1.297 and 0.153
- ELISA test antigen Modified HGP-30 (modified HGP-30; group (B), Group Average): 0.394
- ELISA test antigen Modified HGP-30 (modified HGP-30; group (B), individual mouse): 0.187 and 0.188 and 1.848 and 0.145 and 0.000 (2×)
- ELISA signal on modified HGP-30 (modified HGP-30; [8]): 1.831 and 2.453 and 2.530 and 1.740 and 0.398 and 1.240 and 2.665 and 1.014 and 0.444 and 0.304
- IgG1 ([3]; group Average): 1.400
- IgG2a ([3]; group Average): 0.367
- IgG2b ([3]; group Average): 0.478
- IgG3 ([3]; group Average): 0.531
- IgG1 ([3]; individual mouse): 1.810 and 2.606 and 1.738 and 0.123 and 1.649 and 2.651 and 0.562 and 0.431 and 0.042 and 2.391
- IgG2a ([3]; individual mouse): 0.152 and 1.386 and 0.074 and 0.005 and 0.129 and 1.619 and 0.047 and 0.031 and 0.025 and 0.200
- IgG2b ([3]; individual mouse): 0.223 and 2.038 and 0.464 and 0.017 and 0.025 and 1.613 and 0.059 and 0.038 and 0.183 and 0.123
- IgG3 ([3]; individual mouse): 0.388 and 1.817 and 0.033 and −0.013 and 0.152 and 2.378 and 0.000 and 0.106 and 0.089 and 0.358
- Ig1, serial dilution 1:200 [3, 9]: 0.507
- Ig1, serial dilution 1:800 [3, 9]: 0.173
- Ig1, serial dilution 1:3200 [3, 9]: 0.025
- Ig1, serial dilution 1:12800 [3, 9]: 0.009
- Ig1, serial dilution 1:51200 [3, 9]: 0.014
- Ig1, serial dilution 1:204800 [3, 9]: 0.000
- Ig2a, serial dilution 1:200 [3, 9]: 0.000
- Ig2a, serial dilution 1:800 [3, 9]: 0.015
- Ig2a, serial dilution 1:3200 [3, 9]: 0.000
- Ig2a, serial dilution 1:12800 [3, 9]: 0.003
- Ig2a, serial dilution 1:51200 [3, 9]: 0.006
- Ig2a, serial dilution 1:204800 [3, 9]: 0.000
- Ig2b, serial dilution 1:200 [3, 9]: 0.017
- Ig2b, serial dilution 1:800 [3, 9]: 0.000
- Ig2b, serial dilution 1:3200 [3, 9]: 0.004
- Ig2b, serial dilution 1:12800 [3, 9]: 0.001
- Ig2b, serial dilution 1:51200 [3, 9]: 0.000
- Ig2b, serial dilution 1:204800 [3, 9]: 0.000
- Ig3, serial dilution 1:200 [3, 9]: 0.009
- Ig3, serial dilution 1:800 [3, 9]: 0.002
- Ig3, serial dilution 1:3200 [3, 9]: 0.000
- Ig3, serial dilution 1:12800 [3, 9]: 0.000
- Ig3, serial dilution 1:51200 [3, 9]: 0.000
- Ig3, serial dilution 1:204800 [3, 9]: 0.000
- Ig1, serial dilution 1:200 ([3]; with MPL): 0.103
- Ig1, serial dilution 1:800 ([3]; with MPL): 0.022
- Ig1, serial dilution 1:3200 ([3]; with MPL): 0.003
- Ig1, serial dilution 1:12800 ([3]; with MPL): 0.000
- Ig1, serial dilution 1:51200 ([3]; with MPL): 0.000
- Ig1, serial dilution 1:204800 ([3]; with MPL): 0.000
- Ig2a, serial dilution 1:200 ([3]; with MPL): 0.248
- Ig2a, serial dilution 1:800 ([3]; with MPL): 0.048
- Ig2a, serial dilution 1:3200 ([3]; with MPL): 0.000
- Ig2a, serial dilution 1:12800 ([3]; with MPL): 0.000
- Ig2a, serial dilution 1:51200 ([3]; with MPL): 0.002
- Ig2a, serial dilution 1:204800 ([3]; with MPL): 0.000
- Ig2b, serial dilution 1:200 ([3]; with MPL): 0.147
- Ig2b, serial dilution 1:800 ([3]; with MPL): 0.026
- Ig2b, serial dilution 1:3200 ([3]; with MPL): 0.022
- Ig2b, serial dilution 1:12800 ([3]; with MPL): 0.006
- Ig2b, serial dilution 1:51200 ([3]; with MPL): 0.007
- Ig2b, serial dilution 1:204800 ([3]; with MPL): 0.018
- Ig3, serial dilution 1:200 ([3]; with MPL): 0.265
- Ig3, serial dilution 1:800 ([3]; with MPL): 0.044
- Ig3, serial dilution 1:3200 ([3]; with MPL): 0.006
- Ig3, serial dilution 1:12800 ([3]; with MPL): 0.001
- Ig3, serial dilution 1:51200 ([3]; with MPL): 0.000
- Ig3, serial dilution 1:204800 ([3]; with MPL): 0.000
- ELISA test antigen B Clade (B Clade; group (A), Group Average): 0.005
- ELISA test antigen B Clade (B Clade; group (A), individual mouse): 0.000 (5×) and 0.028
- ELISA test antigen B Clade (B Clade; group (B), Group Average): 0.022
- ELISA test antigen B Clade (B Clade; group (B), individual mouse): 0.000 (3×) and 0.006 and 0.079 and 0.046
- ELISA signal on B Clade (B Clade; [8]): 0.000 (6×) and 0.316 and 0.148 and 0.006 and 0.230
- ELISA test antigen E Clade (E Clade [4]; group (A)): 0.000
- ELISA test antigen E Clade (E Clade [4]; group (B)): 0.000
- ELISA test antigen C Clade (C Clade; group (A), Group Average): 0.018
- ELISA test antigen C Clade (C Clade; group (A), individual mouse): 0.000 (4×) and 0.004 and 0.104
- ELISA test antigen C Clade (C Clade; group (B), Group Average): 0.009
- ELISA test antigen C Clade (C Clade; group (B), individual mouse): 0.003 (2×) and 0.000 (3×) and 0.050
- ELISA signal on C Clade (C Clade; [8]): 0.125 and 0.359 and 0.238 and 0.047 and 0.005 and 0.076 and 0.643 and 0.000 (3×)
- ELISA test antigen E Clade (E Clade [5]; group (A)): 0.000
- ELISA test antigen E Clade (E Clade [5]; group (B)): 0.000
- ELISA signal on E Clade (E Clade [5]; [8]): 0.000 (8×) and 0.016 and 0.504
- ELISA test antigen D Clade (D Clade [6]; group (A)): 0.000
- ELISA test antigen D Clade (D Clade [6]; group (B)): 0.002
- ELISA signal on D Clade (D Clade [6]; [8]): 0.025 and 0.646 and 0.000 (6×) and 0.001 and 0.016
- ELISA test antigen D Clade (D Clade [7]; group (A)): 0.000
- ELISA test antigen D Clade (D Clade [7]; group (B)): 0.005 and 0.006 and 0.000 (4×)
